# Results: patent US20130053382A1, “Inhibitors of Phosphoinositide Dependent Kinase 1 (PDK1)” (priority 2010, published 2013)
# Structures can show the parent of a compound that is named as a salt.
# Target: T1, recombinant human PDK1 (Homo sapiens, UniProt O15530)
# T1 construct: containing amino acids 51-556 of the human PDK1 enzyme; made in house; host or cells: Sf9 insect cells
# T1 sequence (O15530 51-556): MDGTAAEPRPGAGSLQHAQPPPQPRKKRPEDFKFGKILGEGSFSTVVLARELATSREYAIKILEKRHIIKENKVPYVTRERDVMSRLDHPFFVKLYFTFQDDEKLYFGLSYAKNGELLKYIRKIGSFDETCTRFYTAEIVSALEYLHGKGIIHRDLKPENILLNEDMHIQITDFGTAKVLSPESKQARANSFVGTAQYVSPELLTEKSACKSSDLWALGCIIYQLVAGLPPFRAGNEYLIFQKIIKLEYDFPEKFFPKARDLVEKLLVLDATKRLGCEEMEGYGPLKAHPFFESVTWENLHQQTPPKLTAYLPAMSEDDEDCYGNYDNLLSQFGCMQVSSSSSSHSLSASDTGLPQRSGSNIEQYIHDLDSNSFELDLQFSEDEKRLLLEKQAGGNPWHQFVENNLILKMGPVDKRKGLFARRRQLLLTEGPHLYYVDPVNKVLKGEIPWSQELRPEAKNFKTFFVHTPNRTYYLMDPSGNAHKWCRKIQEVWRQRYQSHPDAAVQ
# Assay: PDK1 IMAP fluorescence polarization kinase assay
# Type: biochemical
# Conditions: 10 nM PDK1, 100 nM peptide substrate, 100 nM PIFtide, 2.5 uM ATP, 1.5 hours
row,Compound,IC50 [nM]
1,"O=C(Nc1cc2[nH]ncc2cc1-c1cccc(CN2CCCC2)c1)c1csc(-c2cc(C(F)(F)F)n[nH]2)n1 [Compound 1-11, N-(5-(3-(pyrrolidin-1-ylmethyl)phenyl)-1H-indazol-6-yl)-2-(3-(trifluoromethyl)-1H-pyrazol-5-yl)thiazole-4-carboxamide]",33
2,"Cc1cc(CN)ccc1-c1cc2cn[nH]c2cc1NC(=O)c1csc(-c2cc(C(F)(F)F)n[nH]2)n1 [Compound 4-6, N-(5-(4-(aminomethyl)-2-methylphenyl)-1H-indazol-6-yl)-2-(3-(trifluoromethyl)-1H-pyrazol-5-yl)thiazole-4-carboxamide]",108
3,"NC1(c2ccc(-c3cc4cn[nH]c4cc3NC(=O)c3csc(-c4cc(C(F)(F)F)n[nH]4)n3)cc2)CC1 [Compound 1-18, N-(5-(4-(1-aminocyclopropyl)phenyl)-1H-indazol-6-yl)-2-(3-(trifluoromethyl)-1H-pyrazol-5-yl)thiazole-4-carboxamide]",1860

# The next lines start with the values.
row,IC50 [nM],Compound
1,170,"O=C(Nc1cc2[nH]ncc2cc1-c1cccc(CN2CCCCC2)c1)c1csc(-c2cc(C(F)(F)F)n[nH]2)n1 [Compound 3-5, N-(5-(3-(piperidin-1-ylmethyl)phenyl)-1H-indazol-6-yl)-2-(3-(trifluoromethyl)-1H-pyrazol-5-yl)thiazole-4-carboxamide hydrochloride]"
2,85,"Cc1cc(-c2nc(C(=O)Nc3cc4[nH]ncc4cc3-c3ccc4c(c3)CNC4)cs2)[nH]n1 [Compound 5-7, N-(5-(isoindolin-5-yl)-1H-indazol-6-yl)-2-(3-methyl-1H-pyrazol-5-yl)thiazole-4-carboxamide]"
